Patent publication US20090018162A1, “USE OF 6-(3-CHLORO-2-FLUOROBENZYL)-1-[(2S)-1-HYDROXY-3-METHYLBUTAN-2-YL]-7-METHOXY-4-OXO-1,4-DIHYDROQUINOLINE-3-CARBOXYLIC ACID OR SALT THEREOF FOR TREATING RETROVIRUS INFECTION” (priority 2006, published 2009)
Like-named read-outs stand apart in the source and are kept apart here.

Legend:
[1] = MTS staining for PBMC viability (cytotoxicity); details: human
[2] = system: human PBMCs; assay: MTS staining for PBMC viability (cytotoxicity); details: read-out: TC50, PBMCs, MTS
[3] = system: HIV-1 macrophage-tropic virus strains; assay: microbe, parasite or virus in culture
[4] = system: HIV-1 clinical isolates
[5] = system: human PBMCs; details: 7 days
[6] = system: drug-resistant HIV-1 isolates; assay: Anti-HIV efficacy in fresh human PBMCs, drug-resistant HIV-1 isolates; details: for IC50: Human immunodeficiency virus 1, PBMC, in Homo sapiens
[7] = MTS cytotoxicity in monocyte/macrophage cultures; type: cell-based; details: human, fresh adherent monocyte/macrophage cultures, HIV-infected, macrophages, MTS, read-out: TC50
Procedure: Anti-HIV Efficacy Evaluation in Fresh Human Monocyte/Macrophage. Monocytes/macrophages were allowed to adhere to the interior 60 wells of a 96 well flat bottomed plate for 2 to 18 hours at 37° C., 5% CO2. Following 6 to 14 days in culture, the monocyte/macrophage cultures were washed 3 times to remove any non-adherent cells and serially diluted test compounds were added followed by the addition of a pre-titered amount of HIV. Cultures were washed a final time by media removal 24 hours post infection, fresh compound added and the cultures continued for an additional six days. […] At assay termination, virus replication was measured by collecting cell-free supernatant samples which were analyzed for HIV p24 antigen content using a commercially available p24 ELISA assay (Coulter). […] MTS staining for PBMC viability to measure cytotoxicity. […] The mitochondrial enzymes of metabolically active cells metabolize MTS to yield a soluble formazan product. This allows the rapid quantitative analysis of cell viability and compound cytotoxicity. […] At termination of the assay, 20 μL of MTS reagent was added per well. The microtiter plates were then incubated 4-6 hrs at 37° C. The incubation intervals were chosen based on empirically determined times for optimal dye reduction. […] Data analysis.

[8] = system: HIV-1 macrophage-tropic virus strains
[9] = system: HIV-2 CDC 310319; assay: microbe, parasite or virus in culture; details: Human immunodeficiency virus 2, PBMC
[10] = system: HIV-1 clinical isolates; assay: microbe, parasite or virus in culture; details: Human immunodeficiency virus 1, PBMC
[11] = system: recombinant HIV-1 clones (patient protease/RT sequences in HIV-1 NL4-3); assay: microbe, parasite or virus in culture; type: cell-based

For `O=C1Nc2ccc(Cl)cc2[C@@](C#CC2CC2)(C(F)(F)F)O1` [Efavirenz, efavirenz], the CC50 at 7 days [1] was > 1000 nM, the CC50 ([2]; 52-52 assay) was > 1000 nM and the CC50 ([2]; 144-44 assay) was > 1000 nM. The CC50 ([2]; 1002-60 assay) was > 1000 nM, the CC50 ([2]; 1064-52 assay) was > 1000 nM and the CC50 ([2]; BFC01 assay) was > 1000 nM. For the same molecule, the CC50 ([2]; BR/92/021 assay) was > 1000 nM, the CC50 ([2]; BR/92/025 assay) was > 1000 nM and the CC50 ([2]; BR/93/017 assay) was > 1000 nM. The CC50 ([2]; BR/93/020 assay) was > 1000 nM, the CC50 ([2]; BR/93/022 assay) was > 1000 nM and the CC50 ([2]; CMU 02 assay) was > 1000 nM. The CC50 ([2]; HIV-2 CDC 310319 assay) was > 1000 nM, the CC50 ([2]; JV 1083 assay) was > 1000 nM and the CC50 ([2]; RW/92/016 assay) was > 1000 nM. The CC50 ([2]; UG/92/046 assay) was > 1000 nM, the IC50 ([3]; Human immunodeficiency virus 1, BAL, Macrophage) was 2.12 nM and the IC50 ([3]; Human immunodeficiency virus 1, Macrophage) was 3.58 nM. For the same molecule, the “TI (TC50/IC50)” value ([4]; HIV-1 96USHIPS7 in PBMCs) was >1538.5, the “TI (TC50/IC50)” value ([4]; HIV-1 BFC01 in PBMCs) was >1449.3 and the “TI (TC50/IC50)” value ([4]; HIV-1 BR/92/021 in PBMCs) was >21.3. The “TI (TC50/IC50)” value ([4]; HIV-1 BR/92/025 in PBMCs) was >3333.3, the “TI (TC50/IC50)” value ([4]; HIV-1 BR/93/017 in PBMCs) was >1724.1 and the “TI (TC50/IC50)” value ([4]; HIV-1 BR/93/020 in PBMCs) was >3125.0. For the same molecule, the “TI (TC50/IC50)” value ([4]; HIV-1 BR/93/022 in PBMCs) was >1612.9, the “TI (TC50/IC50)” value ([4]; HIV-1 CMU 02 in PBMCs) was >549.5 and the “TI (TC50/IC50)” value ([4]; HIV-1 JV 1083 in PBMCs) was >1538.5. The “TI (TC50/IC50)” value ([4]; HIV-1 RW/92/016 in PBMCs) was >1639.3, the “TI (TC50/IC50)” value ([4]; HIV-1 UG/92/046 in PBMCs) was >840.3 and the CC50 [5] was > 1000 nM. The “TI (TC50/IC50)” value ([6]; HIV-1 52-52 in PBMCs) was >9901.0, the “TI (TC50/IC50)” value ([6]; HIV-1 144-44 in PBMCs) was >1666.7 and the “TI (TC50/IC50)” value ([6]; HIV-1 1002-60 in PBMCs) was >4761.9. For the same molecule, the “TI (TC50/IC50)” value ([6]; HIV-1 1064-52 in PBMCs) was >3448.3, the “TI (TC50/IC50)” value ([6]; HIV-1 MDR 769 in PBMCs) was >1851.9 and the “TI (TC50/IC50)” value ([6]; HIV-1 MDR 807 in PBMCs) was >1408.5. The IC50 ([6]; HIV-1 52-52 (protease-inhibitor resistant) in PBMCs) was < 0.1 nM, the IC50 ([6]; against several viruses (e.g., MDR 1385, MDR 3761) in PBMCs) was > 1000 nM and the IC50 ([6]; multi-drug-resistant HIV-1 MDR 769 in PBMCs) was 0.54 nM. For the same molecule, the IC50 ([6]; multi-drug-resistant HIV-1 MDR 807 in PBMCs) was 0.71 nM, the IC50 ([6]; multi-drug-resistant HIV-1 MDR 1385 in PBMCs) was > 1000 nM and the IC50 ([6]; multi-drug-resistant HIV-1 MDR 3761 in PBMCs) was > 1000 nM. For the same molecule, the CC50 at 7 days ([7]; ADA assay) was > 10 µM, the CC50 at 7 days ([7]; Ba-L assay) was > 10 µM and the “TI (TC50/IC50)” value ([8]; HIV-1 ADA in macrophages) was >2793.3. For the same molecule, the “TI (TC50/IC50)” value ([8]; HIV-1 Ba-L in macrophages) was >4717.0, the IC50 [9] was > 1000 nM and the IC50 ([10]; HIV-1 96USHIPS7 (subtype /B, R5) in PBMCs) was 0.65 nM. It also gave an IC50 ([10]; HIV-1 BR/92/021 (subtype B/B, R5) in PBMCs) of 47 nM, an IC50 ([10]; HIV-1 BR/93/017 (subtype B/B, R5) in PBMCs) of 0.58 nM and an IC50 ([10]; HIV-1 BR/93/020 (subtype F/F, R5/X4) in PBMCs) of 0.32 nM. The IC50 ([10]; HIV-1 BR/93/022 (subtype /B, R5) in PBMCs) was 0.62 nM, the IC50 ([10]; HIV-1 CMU 02 (subtype /EA, X4) in PBMCs) was 1.82 nM and the IC50 ([10]; HIV-1 JV 1083 (subtype /G, R5) in PBMCs) was 0.65 nM. It also gave an IC50 ([10]; HIV-1 RW/92/016 (subtype A/A, R5) in PBMCs) of 0.61 nM and an IC50 ([10]; HIV-1 UG/92/046 (subtype D/D, X4) in PBMCs) of 1.19 nM.

In the case of `C[C@H](Cn1cnc2c(N)ncnc21)OCP(=O)(O)O` [TFV, Tenofovir], the “Fold-increase (EC50 fold increase above reference clone NL4-3)” value (from here on “Fold-increase”) ([11]; RT mutation 2-5 TAMs, K65 and/or Q151, N=4, averaged) is reported as 8.5, the “Fold-increase” value ([11]; RT mutation 2-5 TAMs, N=16, averaged) is reported as 3.5 and the “Fold-increase” value ([11]; RT mutation 2-5 TAMs, T69ins, N=4, averaged) is reported as 12.2. The “Fold-increase” value ([11]; RT mutation 6 TAMS, M184, N=7, averaged) was 1.6, the “Fold-increase” value ([11]; RT mutation 6 TAMs, N=5, averaged) was 5.0 and the “Fold-increase” value ([11]; RT mutation K65 and/or Q151, M184, N=12, averaged) was 2.2. The “Fold-increase” value ([11]; RT mutation K65 and/or Q151, N=7, averaged) was 4.0, the “Fold-increase” value ([11]; RT mutation M184, N=12, averaged) was 0.6 and the “Fold-increase” value ([11]; Wild-type clones, N=8, averaged) was 0.8.
